Measurements as given in paper PMC11351612, “Heteronuclear Complexes with Promising Anticancer Activity against Colon Cancer” (Biomedicines, 2024).

Legend:
Caco-2/TC7 cells = assay: Cell cycle analysis (PI, flow cytometry), Caco-2/TC7; assay type: cell-based, human; conditions: Caco-2/TC7, IC50 concentration, 48 h and 72 h
Protocol: (§1) Cell cycle analysis. After treatment, the cells were fixed in 70% ice-cold ethanol and stored at 4 °C for 24 h. After centrifugation, the cells were rehydrated in PBS (phosphate-buffered saline) and stained with propidium iodide (PI, 50 μg/mL) solution containing RNase A (100 μg/mL). PI-stained cells were analysed for DNA content in a FACSARRAY BD equipped with an argon ion laser. […] Cell cycle distribution was determined on a linear scale. The percentage of cells in cycle phases was determined using MODIFIT 3.0 verity software.
(§2) To investigate the influence of the heteronuclear derivative 1 on the cell cycle distribution of Caco-2 cells, propidium iodide-stained cells were analysed by flow cytometry. The distribution of cells found in each stage of the cell cycle for the control samples was sufficiently homogeneous (Figure 4). For both cell lines, samples analysed after 48 h of incubation had 22% of the cells in the G0/G1 phase, ca. 45% of cells in the synthesis phase, and approximately 30% of cells undergoing the G2 phase or cell division. The low percentage of cells observed in the G0 and G1 phases may be indicative of elevated proliferation and an uncontrolled growth of cancerous cells. It would be of interest to ascertain whether the complexes chosen for the treatments could arrest the cell cycle at phases preceding cell division, thereby inhibiting the proliferation of cancer cells.

Caco-2/PD7 cells = assay: Cell cycle analysis (PI, flow cytometry), Caco-2/PD7; assay type: cell-based, human; conditions: Caco-2/PD7, IC50 concentration, 72 h
Protocol: as §1, §2

[1] = tested on: pIRES2-EGFP (5308 pb) plasmid DNA; assay: Gel electrophoretic mobility of plasmid DNA; assay type: binding; conditions: metal-to-base pair ratios 0.5, 1, 2; 0.8% agarose gel
Protocol: Adducts with pIRES2-EGFP (5308 pb) plasmid DNA (Catalog #6029-1) were prepared by adding the required volume of a freshly prepared solution of metal complexes in MilliQ water. The concentration of pIRES2-EGFP in the reaction mixture was 117 ng/µL, and the complexes’ concentration was varied to give different metal-to-base pair stoichiometries (0.5, 1 and 2). The mobility of the metal complex-treated pIRES2-EGFP samples was analysed by gel electrophoresis on a 0.8% (w/v) agarose gel (Boehringer-Mannheim, Mannheim, Germany) at […] at 25 °C in Tris-acetate/EDTA buffer. The gel was stained for 30 min in […] (w/v) ethidium bromide and the bands were visualised with a UVP gel scanner.
In addition, the interaction of both complexes with DNA was also studied by their ability to modify the electrophoretic mobility of the pIRES2-EGFP (5308 pb) plasmid DNA and compared to cisplatin (Figure 7).

[2] = tested on: differentiated Caco-2/PD7 cells; assay: Cell viability of differentiated (enterocyte-like) Caco-2/PD7 cells; assay type: cell-based, human; conditions: for Cell viability of differentiated Caco-2 cells at 2 × IC50: differentiated Caco-2/PD7, concentration = 2 × IC50, 72 h
Protocol: For cell viability studies of differentiated (enterocyte-like) cells, Caco-2/PD7 cells were seeded on 96-well plates at a density of 4 × 10^3 cells/well and incubated for approximately 10–15 days, changing the culture medium every 3 days, up to reaching confluence—the moment in which the cells were treated with the complexes at concentrations equal to their mean IC50 and 2 × IC50 values.
It is well known that the Caco-2 cell line undergoes spontaneous differentiation into enterocytic-like cells when it reaches confluency. As a result, these cells become polarised, expressing apical and basolateral surfaces with established tight junctions. This allowed for the evaluation of the cytotoxic impact of the complexes on differentiated cells (acting as noncarcinogenic) and a comparison with the viability of undifferentiated cells. Thus, the toxicity of the two heteronuclear compounds has been studied by cell viability experiments by treatment of Caco-2/PD7 cells after differentiation with complexes 1 and 2 at the corresponding concentrations equivalent to IC50 and 2 × IC50 values for 72 h. The results expressed as the % of cell viability observed after treatment with the complexes (or 100% for non-treated control cells) are summarised in Figure S16 (Supplementary Materials). […] However, the cell viability is around 90% even when the cells are treated with double the IC50 concentration.

[3] = tested on: thioredoxin reductase (TrxR); conditions: undifferentiated Caco-2/TC7, IC50 concentration, 24 h incubation
Protocol: The Caco-2 cell line (TC7 clone) was seeded in a 25 cm^2 flask (2 × 10^6). […] The procedural guidelines of the supplied kit were followed. […] The outcomes were presented as a percentage representing the TrxR activity relative to the control.

[4] = Solution stability by UV-vis in PBS; assay type: physicochemical; conditions: PBS pH 7.4, 37 °C; for Stability under physiological conditions (UV-vis spectrum over time): 24 h
Protocol: Solution chemistry. The stability of the dinuclear derivatives was analysed by absorption UV-vis spectroscopy. UV-vis absorption spectra of the complexes were recorded on a Thermo Scientific spectrophotometer. Solutions of the complexes (5 × 10^−5 M) in PBS (pH = 7.4) were prepared from 20 mM DMSO stock solutions and thereafter monitored over 24 h at 37 °C, measuring the electronic spectra.
The solution stability of the new heterometallic compounds was determined under physiological conditions. To simulate conditions similar to those in cell culture and the body, the compounds were dissolved in a phosphate-buffered saline solution (PBS) with a pH of 7.4 and then incubated at 37 °C. The UV spectra of each complex were recorded at different time intervals (Figure S14). Qualitative determination of the stability of the compounds under such conditions was achieved by comparing the spectra obtained at each time point.

[5] = Solubility in water at 25 °C

Substance	Effect on cell cycle distribution (Caco-2/TC7 cells)	Effect on cell cycle distribution (Caco-2/PD7 cells)	Effect on electrophoretic mobility of plasmid DNA [1]	Cell viability of differentiated Caco-2 cells at 2 × IC50 [2]	Effect on TrxR activity [3]	Solubility in PBS (qualitative) [4]	Stability under physiological conditions (UV-vis spectrum over time) [4]	S 25 °C, H2O [5]	Cell viability of differentiated Caco-2 cells at IC50 ([2]; differentiated Caco-2/PD7, concentration = IC50, 72 h)
[Cu{Au(Spy)(PTA)}2]PF6 [compound 1]	arrest of the cell cycle in Caco-2/TC7 cells within the G0/G1 phases	not enough living cells being found for the analysis	significant effect on the mobility	around 90%	inhibited TrxR activity	reduced solubility in PBS	notable stability	< 0.5 g/L	
[Zn{Au(PTA)(Spy)}2](NO3)2 [compound 2]				87.66 ± 2.85%		highly soluble	remained unaltered for a period of 24 h		92.14 ± 4.22%
